The source of these data is paper PMC9140012, “Epigenetic-Like Stimulation of Receptor Expression in SSTR2 Transfected HEK293 Cells as a New Therapeutic Strategy” (Cancers, 2022).

Test [1] has as its system PC3. The experiment in a line: Chemotoxicity, colony formation assay (CFA), PC3. The test is classed as cell-based, human. As to conditions: for Survival Fraction: day one to three in deficient RPMI 1640, 2 days full medium, CFA, ± SD; for IC50: Homo sapiens, PC-3. How it is done:
(§1) HEK293 cells were obtained from the German Resource Center for Biological Material (DSMZ, Braunschweig, Germany) and grown in Dulbecco’s modified Eagle´s medium supplemented with 10% fetal calf serum (FCS) in a humidified atmosphere containing 5% CO2. Cells were transfected with plasmid, encoding murine HA-tagged SSTR2 receptors using lipofectamine according to the manufacturing instructions (Thermofisher, Darmstadt, Germany). Stable transfectants were selected in the presence of 500 µg/mL G-418 and characterized using radioligand binding assays, Western blot analyses, surface ELISA assays and immunocytochemistry as described previously. Non-transfected HEK293 cells were maintained under equal conditions as HEKsst2 except for the addition of G-418. In the following, HEK293 cells and SSTR2 transfected HEK293 cells are termed as HEK and HEKsst2, respectively. The human prostate carcinoma cell line PC3 (ATCC®, Manassas, VA, USA) was cultured in a RPMI medium with 10% (v/v) FCS and 1% (v/v) non-essential amino acids (NEA). […] The culture medium of each cell line was renewed every 2–3 days. Via a PCR test, each cell line is proven to be free of mycoplasmas.
(§2) HEKsst2 and PC3 were plated in T75 flasks on day zero. […] Cells were incubated in DMEM (HEKsst2) or an RPMI 1640 (PC3) nutrient-deficient medium (lacking medium additives and FCS) until day three at 37 °C. For a further two days, HEKsst2 and PC3 were incubated in a full medium (with medium additives and FCS). On day five, cells were trypsinized and plated for the CFAs.
(§3) To determine the radiosensitivity and radiotoxicity, the clonogene cell survival was analyzed. Colony formation assays were performed as described earlier. […] Briefly, after detaching the treated cells, an aliquot of the cell suspension per dose point was distributed in T25 culture flasks for the colony formation test and is placed in an incubator for 7 (HEKsst2) or 10 days (PC3). To stop colony formation, the cells were fixed with ethanol 80% (v/v) followed by staining with crystal violet solution. The colony counting was carried out under a microscope (25× magnification). Colonies of more than 50 cells were scored as survivors. The plating efficiency (PE) and the survival rate (survival fraction SF) were calculated for irradiated and unirradiated cells based on the number of seeded cells.
(§4) To examine the statistical significance, an unpaired student’s t-test was used. A difference between two independent samples is significant if the probability of error p ≤ 0.05. For the statistical evaluation, MS Office Excel was used. […]

Test [2] relates to PC3. Conditions: PC3 compared to HEKsst2; cited from earlier work. The source says: The radiosensitivity expressed as SF after external X-ray irradiation is similar for the cell lines HEKsst2 and PC3 (Figure 4). […] One exception is the dose point at 0.6 Gy X-rays for not stimulated vs. stimulated PC3 cells. […] Whereas the radiosensitivity of non-stimulated HEK ...
Test [3] relates to cell lines HEKsst2 and PC3. The experiment in a line: IC20/IC40 of single epidrugs by colony formation assay, HEKsst2 and PC3. In kind it is cell-based. On the procedure:
as §2
To determine the radiosensitivity and radiotoxicity, the clonogene cell survival was analyzed. Colony formation assays were performed as described earlier. The following steps have been done for each of the treatment procedures. Briefly, after detaching the treated cells, an aliquot of the cell suspension per dose point was distributed in T25 culture flasks for the colony formation test and is placed in an incubator for 7 (HEKsst2) or 10 days (PC3). To stop colony formation, the cells were fixed with ethanol 80% (v/v) followed by staining with crystal violet solution. The colony counting was carried out under a microscope (25× magnification). Colonies of more than 50 cells were scored as survivors. The plating efficiency (PE) and the survival rate (survival fraction SF) were calculated for irradiated and unirradiated cells based on the number of seeded cells.
To determine the Bmax values and the Kd, the GraphPad Prism 9.0 software was used. Confidence Intervals (CI) express a 95% likelihood of the nonlinear fit.

Test [4] deals with HEKsst2. The experiment in a line: Chemotoxicity, colony formation assay (CFA), HEKsst2. In kind it is cell-based. Conditions: for IC50: read-out: half maximum inhibitor concentrations (IC50). On the procedure:
as §1, §2, §3, §4

Test [5] concerns Neuroendocrine Tumor Cells. Details: method as in PMID 30796167. Conditions: 5-fluorouracil in combination with decitabine or tacedinaline; cited from earlier work.
On the set-up of test [6]: method as in PMID 25600060. As to conditions: fractionated external radiation; cited from earlier work.
Test [7] deals with relapsed or refractory neuroblastoma. Further details: method as in PMID 34270348. Conditions: I-131-MIBG in combination with vorinostat, phase II; cited from earlier work. An excerpt: An overview of studies investigating the synergistic improvement of cancer therapy using HDACi in clinical trials is given by Hontecillas-Prieto et al..

Counter-ions that a name gives are not always drawn. Like-named read-outs stand apart in the source and are kept apart here.

Regarding `Nc1ncn([C@H]2C[C@H](O)[C@@H](CO)O2)c(=O)n1` [5-aza-dC, 5-aza-2′-deoxycytidine], the “Survival Fraction” value in test [1] (0.01 µM 5-aza-dC) is given as 67.1 ± 3.3%; in test [1] (0.05 µM 5-aza-dC), 52.1 ± 19.0%; in test [1] (0.1 µM 5-aza-dC), 69.4 ± 2.1%; in test [1] (0.5 µM 5-aza-dC) it was 41.6 ± 1.8%; in test [1] (1.0 µM 5-aza-dC), 24.9 ± 2.0%; in test [1] (5.0 µM 5-aza-dC) it was 27.5 ± 3.2%. Also, the “Survival Fraction” value is given as 9.4 ± 0.3% in test [1] (10 µM 5-aza-dC); 1.9 ± 0.02% in test [1] (25 µM 5-aza-dC); 97.9 ± 1.8% in test [4] (0.01 µM 5-aza-dC, added day one to day three in nutrient-deficient DMEM, then 2 days full medium, CFA day five, mean ± SD, three independent trials in triplicate); 118.0 ± 31% in test [4] (0.05 µM 5-aza-dC, day one to three in deficient medium, 2 days full medium, CFA, ± SD); 83.2 ± 4.8% in test [4] (0.1 µM 5-aza-dC, day one to three in deficient medium, 2 days full medium, CFA, ± SD); 96.6 ± 13.2% in test [4] (0.5 µM 5-aza-dC, day one to three in deficient medium, 2 days full medium, CFA, ± SD). Also, the “Survival Fraction” value was 93.7 ± 1.3% in test [4] (1.0 µM 5-aza-dC, day one to three in deficient medium, 2 days full medium, CFA, ± SD); 42.3 ± 4.8% in test [4] (5.0 µM 5-aza-dC, day one to three in deficient medium, 2 days full medium, CFA, ± SD); 18.6 ± 0.8% in test [4] (10 µM 5-aza-dC, day one to three in deficient medium, 2 days full medium, CFA, ± SD); 1.7 ± 0.4% in test [4] (25 µM 5-aza-dC, day one to three in deficient medium, 2 days full medium, CFA, ± SD). In addition, the IC50 is 0.3 µM in test [1] and 3.9 µM in test [4] (5-aza-dC as single epidrug, HEKsst2, CFA). For the same molecule, the “survival of 5-aza-dC treated cells” value in test [2] is listed as “lower survival”. Also, the IC20 in test [3] (5-aza-dC, value used for both HEKsst2 and PC3, CFA) came out at 0.25 µM.

In the case of `O=c1[nH]cc(F)c(=O)[nH]1` [5-fluorouracil], the radiosensitization entry in test [5] is “significant effects on radiosensitization”.

With `CCCC(CCC)C(=O)O` [VPA, valproic acid sodium salt], the Survival Fraction in test [1] (0.1 mM VPA) was found to be 95.6 ± 4.5%; in test [1] (0.5 mM VPA) it was 95.6 ± 2.3%; in test [1] (1.0 mM VPA), 72.6 ± 11.6%; in test [1] (2.5 mM VPA) it was 69.4 ± 6.0%; in test [1] (5.0 mM VPA), 35.1 ± 4.6%; in test [1] (10 mM VPA) it was 24.0 ± 1.2%. In addition, the Survival Fraction in test [1] (25 mM VPA) stood at 1.2 ± 1.1%; in test [1] (50 mM VPA) it was 1.7 ± 1.1%; in test [4] (0.5 mM VPA, day one to three in deficient medium, 2 days full medium, CFA, ± SD) it was 78.7 ± 10.8%; in test [4] (1.0 mM VPA, day one to three in deficient medium, 2 days full medium, CFA, ± SD), 67.5 ± 15.9%; in test [4] (2.5 mM VPA, day one to three in deficient medium, 2 days full medium, CFA, ± SD), 18.5 ± 2.2%; in test [4] (5.0 mM VPA, day one to three in deficient medium, 2 days full medium, CFA, ± SD), 21.0 ± 5.1%. Also, the Survival Fraction in test [4] (10 mM VPA, day one to three in deficient medium, 2 days full medium, CFA, ± SD) was 53.5 ± 5.8%; in test [4] (25 mM VPA, day one to three in deficient medium, 2 days full medium, CFA, ± SD) it was 8.0 ± 0.8%. Besides, the IC50 in test [1] (read-out: IC50) turned out to be 3900 µM; in test [4] it was 1850 µM. This molecule displayed an IC20 in test [3] of 600 µM. Also, in test [3] (VPA, value used for both HEKsst2 and PC3, CFA), the IC40 stood at 1000 µM. Further, the radiosensitization result in test [6] is “radiosensitization effect”.

Regarding `O=C(CCCCCCC(=O)Nc1ccccc1)NO` [vorinostat], the radiation sensitizing result in test [7] was “beneficial radiation sensitizing properties”.
